Laboratory results as given in patent publication US12521393B2, “Cytotoxicity targeting chimeras for CCR2-expressing cells” (GLAXOSMITHKLINE INTELLECTUAL PROPERTY DEVELOPMENT LIMITED, priority 2021, dated 2026).

Tests used:
[1] = system: CCR2 expressing cells (CD11b+Ly6c+Hi) in peripheral blood; test: In vivo depletion assay, flow cytometry of peripheral blood (Example 201); design: species or system human CCR2 knock-in mice (C57 background); conditions: hCCR2 knock-in mice, IV 0.1 mpk compound + 10 mpk anti-cotinine antibody (SEQ ID NO: 13/14), peripheral blood at 48 hr
Summary of the method: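 Mice dosed with compound formulated in saline/DMSO/PBS, with anti-cotinine antibody (rabbit variable region, mouse IgG2a Fc) where required, pre-incubated 30 min at room temperature. Terminal peripheral blood RBC-lysed, Fc-blocked, stained for CD45, CD3, CD11b, Ly6C, human CCR2 and 7AAD; percent depletion of CD11b+Ly6c+Hi cells determined by flow cytometry.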

[2] = biological target: anti-cotinine antibody (SEQ ID NO: 11/12, rabbit variable region with human IgG1 Fc DE mutation); test: SPR binding of anti-cotinine antibody to ARM compounds, Biacore T200, 37° C. (Example 202); conditions: SPR Biacore T200, 37° C., pH 7.4, antibody SEQ ID NO: 11/12 captured on protein A; Kd in molar
Summary of the method: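 Antibody captured on a protein A chip; ARM compounds injected at 100 μL/min (200 s association, 2000 s dissociation), 3-fold 5-point series from 200 nM, at 37 °C in HEPES pH 7.4 buffer with 0.005% P20 and 1% DMSO. Double-referenced sensorgrams fit 1:1 for kon, koff, Kd (koff/kon), residence time (1/koff); pKd averaged across runs.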

[3] = system: endogenous target monocytes in human PBMC; test: PBMC ex vivo monocyte depletion flow cytometry assay (Example 200); assay type: cell-based; conditions: with anti-cotinine antibody (SEQ ID NO: 11/12), 18-24 hours, EC50 in molar, read-out: Ex Vivo Depletion Assay pEC50 (converted)
Summary of the method: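 Monocyte depletion is reported as pEC50, averaged or given individually across runs, and read by flow cytometry staining CD45, CD14 and CD4 with a viability dye. Compounds, diluted four-fold over 11 points from 1 mM DMSO stocks, were combined with 30 μg/mL Fc-enhanced anti-cotinine antibody and human PBMC, then incubated 18-24 h at 37° C.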

Row | Compound | % Depletion of CCR2 expressing cells [1] | pKd of Antibody for ARM Compound of Formula (I) [2] | EC50 [3]
1 | CC(C)N(C)[C@@H]1CC[C@H](N2CC[C@H](Nc3ncnc4ccc(C(F)(F)F)cc34)C2=O)[C@H](Nc2c(NCCOCCOCCOCCOCCOCCNC(=O)[C@H]3CC(=O)N(C)[C@@H]3c3cccnc3)c(=O)c2=O)C1 [Example 85, (2S,3S)-N-(17-((2-(((1R,2S,5R)-5-(Isopropyl(methyl)amino)-2-((S)-2-oxo-3-((6-(trifluoromethyl)quinazolin-4-yl)amino)pyrrolidin-1-yl)cyclohexyl)amino)-3,4-dioxocyclobut-1-en-1-yl)amino)-3,6,9,12,15-pentaoxaheptadecyl)-1-methyl-5-oxo-2-(pyridin-3-yl)pyrrolidine-3-carboxamide] | 57% | 9.6885 | 2 nM
2 | CC(C)N(C)[C@@H]1CC[C@H](N2CC[C@H](Nc3ncnc4ccc(C(F)(F)F)cc34)C2=O)[C@H](NC(=O)[C@H]2CC[C@@H](NC(=O)CCOCCNC(=O)COCCNC(=O)[C@H]3CC(=O)N(C)[C@@H]3c3cccnc3)CC2)C1 [Example 98, (2S,3S)-N-(2-(2-((2-(3-(((1S,4s)-4-(((1R,2S,5R)-5-(Isopropyl(methyl)amino)-2-((S)-2-oxo-3-((6-(trifluoromethyl)quinazolin-4-yl)amino)pyrrolidin-1-yl)cyclohexyl)carbamoyl)cyclohexyl)amino)-3-oxopropoxy)ethyl)amino)-2-oxoethoxy)ethyl)-1-methyl-5-oxo-2-(pyridin-3-yl)pyrrolidine-3-carboxamide] | 88% | 9.0095 | 0.398 nM
3 | CC(C)N(C)[C@@H]1CC[C@H](N2CC[C@H](Nc3ncnc4ccc(C(F)(F)F)cc34)C2=O)[C@H](NC(=O)CCOCCNC(=O)[C@H]2CC[C@H](NC(=O)COCCNC(=O)[C@H]3CC(=O)N(C)[C@@H]3c3cccnc3)CC2)C1 [Example 108, (2S,3S)-N-(2-(2-(((1R,4S)-4-((2-(3-(((1R,2S,5R)-5-(Isopropyl(methyl)amino)-2-((S)-2-oxo-3-((6-(trifluoromethyl)quinazolin-4-yl)amino)pyrrolidin-1-yl)cyclohexyl)amino)-3-oxopropoxy)ethyl)carbamoyl)cyclohexyl)amino)-2-oxoethoxy)ethyl)-1-methyl-5-oxo-2-(pyridin-3-yl)pyrrolidine-3-carboxamide] | 93% | 8.9855 | 0.398 nM
4 | CC(C)N(C)[C@@H]1CC[C@H](N2CC[C@H](Nc3ncnc4ccc(C(F)(F)F)cc34)C2=O)[C@H](NC(=O)CCOCCOCCNC(=O)NCCOCCOCCNC(=O)[C@H]2CC(=O)N(C)[C@@H]2c2cccnc2)C1 [Example 119, (2S,3S)-N-(20-(((1R,2S,5R)-5-(Isopropyl(methyl)amino)-2-((S)-2-oxo-3-((6-(trifluoromethyl)quinazolin-4-yl)amino)pyrrolidin-1-yl)cyclohexyl)amino)-10,20-dioxo-3,6,14,17-tetraoxa-9,11-diazaicosyl)-1-methyl-5-oxo-2-(pyridin-3-yl)pyrrolidine-3-carboxamide] | 77% | 9.1735 | 1.58 nM
5 | CC(C)N(C)[C@@H]1CC[C@H](N2CC[C@H](Nc3ncnc4ccc(C(F)(F)F)cc34)C2=O)[C@H](NC(=O)[C@H]2CC[C@H](NC(=O)CCCOCCCCOCCNC(=O)[C@H]3CC(=O)N(C)[C@@H]3c3cccnc3)CC2)C1 [Example 121, (2S,3S)-N-(2-(4-(4-(((1R,4r)-4-(((1R,2S,5R)-5-(Isopropyl(methyl)amino)-2-((S)-2-oxo-3-((6-(trifluoromethyl)quinazolin-4-yl)amino)pyrrolidin-1-yl)cyclohexyl)carbamoyl)cyclohexyl)amino)-4-oxobutoxy)butoxy)ethyl)-1-methyl-5-oxo-2-(pyridin-3-yl)pyrrolidine-3-carboxamide] | 69% | 9.332 | 1.26 nM
